# Source: patent publication US20040132715A1, “Method to treat allergic rhinitis” (priority 2002, published 2004)
# Several values for one entry are separate records, joined by “and”; a condition that tells them apart may be missing. Equal entries are not always repeated.
# What was measured:
# Assay type in all cases: in vivo
# [1] = tested on: Zymosan Induced Peritonitis in Mice; test: Zymosan induced peritonitis in mice (PMN influx into peritoneal cavity); settings: for effect on PMN influx (in words): Imetit, thioperamide 5 mg/kg, s.c.; for PMN (10^6 per mouse), mean: group mean; for PMN (10^6 per mouse), mean / PMN (10^6 per mouse), single mice: s.c. at -15 min and +2 h (Compound 1 10 mg/kg; Imetit, Thioperamide 5 mg/kg), 1 mg zymosan A i.p.; for PMN (10^6 per mouse), single mice: lavage at 4 h
# Description: This is commonly used to induce peritonitis in mice and appears to act in a mast cell dependent manner. Male out-bred Swiss albino mice were purchased from Bantin and Kingman (T.O. strain; Hull, Humberside) and maintained on a standard chow pellet diet with tap water ad libitum and a 12:00 h light /dark cycle. All animals were housed for at least 3 days prior to experimentation to allow body weight to reach ˜30 g on the day of the experiment. […] Animals were briefly (30-60 s) anesthetized with halothane for all s.c. and i.p. treatments described below. Drugs were stored at room temperature, in the dark. On the day of the experiment, drugs were dissolved in sterile PBS as depicted below, and generously vortexed. […] Time −15 min: Compounds or PBS administered s.c. at the reported doses. Time 0: At time 0, mice received 1 mg zymosan A (Sigma) i.p. Time +2 h: Compounds or PBS administered s.c. at the reported doses. […] Peritoneal cavities were washed 4 h later with 3 mL of PBS containing 3 mM EDTA, and the number of migrated leukocytes determined, by taking an aliquot (100 μL) of the lavage fluid and diluting 1:10 in Turk's solution (0.01% crystal violet in 3% acetic acid). The samples were then vortexed and 10 μL of the stained cell solution were placed in a Neubauer haemocytometer. Differential cell counts were performed using a light microscope (Olympus B061). […] Statistical differences were determined by Anova followed by Bonferroni's post-hoc test.
# [2] = tested on: Sodium Urate Crystal Induced Peritonitis in Mice; test: Sodium urate crystal (MSU) induced peritonitis in mice (PMN migration)
# Description: Such crystals are the primary cause of the inflammation associated with acute gouty arthritis.
# Male out-bred Swiss albino mice were purchased from Bantin and Kingman (T.O. strain; Hull, Humberside) and maintained on a standard chow pellet diet with tap water ad libitum and a 12:00 h light/dark cycle. All animals were housed for at least 3 days prior to experimentation to allow body weight to reach ˜30 g on the day of the experiment. For this particular experiment body weight was 30±1 (n=32).
# Compound 1 was stored at room temperature in the dark. […] Mice received 3 mg mono sodium urate crystals (MSU) given intra-peritoneally at time 0.
# Time +6 h: Peritoneal cavities were washed 6 h later with 3 mL of PBS containing 3 mM EDTA, and the number of migrated leukocytes determined, by taking an aliquot (100 μL) of the lavage fluid and diluting 1:10 in Turk's solution (0.01% crystal violet in 3% acetic acid). The samples were then vortexed and 10 μL of the stained cell solution were placed in a Neubauer hematocytometer. Differential cell counts were performed using a light microscope (Olympus B061). In view of their chromatic characteristics and their nucleus and cytoplasm appearance, cells polymorphonuclear cells (PMN, >95% neutrophils) could be easily differentiated
# Experimental groups are described below:
# Data are shown for single mice, and also shown as mean ±SE of (n) mice per group. Statistical differences were determined by Student's t test. A P value <0.05 was taken as significant.
# PMN influx into the peritoneal cavity was measured at the 6 h time-point after collection of the lavage fluids and specific staining as described in the experimental section.
# [3] = tested on: Croton Oil Induced Topical Inflammation in Mice; test: Croton oil induced topical inflammation in mice (ear swelling); settings: for Difference in ear Thickness, Mean: group mean, s.c. x3 (Compound 1 10 mg/kg; Indomethacin 30 mg/kg), 6 h after croton oil
SMILES,"effect on PMN influx (in words) ([1]; Compound 1 10 mg/kg, 4 h)","PMN (10^6 per mouse), mean ([1]; 4 h)","PMN (10^6 per mouse), single mice [1]","% inhib (PMN influx) ([1]; vs PBS group, Compound 1 10 mg/kg, Thioperamide 5 mg/kg s.c., 4 h)","effect on PMN migration (in words) ([2]; 10 mg/kg s.c., 6 h)","PMN (10^6 per mouse), mean ([2]; group mean, 10 mg/kg s.c. at -15 min, +2 h and +4 h, 3 mg MSU crystals i.p., 6 h time-point)","PMN (10^6 per mouse), single mice ([2]; single mice, 10 mg/kg s.c. at -15 min, +2 h and +4 h, 3 mg MSU crystals i.p., 6 h time-point, 10 mg/kg)",effect on ear swelling (in words) ([3]; 10 mg/kg x 3 s.c.),"inhibition at 10 mg/kg ([3]; Mus musculus, sc, 6 h, read-out: % inhib (ear swelling))","Difference in ear Thickness, Mean [3]","Difference in ear Thickness, single mice ([3]; single mice, s.c. 30 min before, 2 and 4 h after croton oil (Compound 1 10 mg/kg; Indomethacin 30 mg/kg), measured 6 h after croton oil)"
S=C(NC1CCCCC1)N1CCC(c2cnc[nH]2)CC1 [Thioperamide],significant inhibitory effect,9.3 10^6 per mouse,9.3 10^6 per mouse and 16.5 10^6 per mouse and 7.2 10^6 per mouse and 10.8 10^6 per mouse and 5.4 10^6 per mouse and 9.9 10^6 per mouse and 6.9 10^6 per mouse and 8.1 10^6 per mouse,(−46%),–,–,–,–,–,–,–
N=C(N)SCCc1cnc[nH]1 [Imetit],inactive,17.3 10^6 per mouse,–,–,–,–,–,–,–,–,–
"CN1CCN(C(=O)c2cc3cc(Cl)ccc3[nH]2)CC1 [Compound 1, (5-Chloro-1H-indol-2-yl)-(4-methyl-piperazin-1-yl)-methanone]",significantly reduced PMN influx,6.6 10^6 per mouse,9.9 10^6 per mouse and 3.6 10^6 per mouse and 9.3 10^6 per mouse and 3.3 10^6 per mouse and 8.1 10^6 per mouse and 5.1 10^6 per mouse and 6.9 10^6 per mouse,–,significantly reduced PMN migration,6.8 10^6 per mouse,7.8 10^6 per mouse (2×) and 4.5 10^6 per mouse and 3.0 10^6 per mouse and 8.1 10^6 per mouse and 9.3 10^6 per mouse and 6.6 10^6 per mouse and 7.2 10^6 per mouse,significantly reduced the swelling,28%,12.0 × 0.01 mm,12 × 0.01 mm and 10 × 0.01 mm and 13 × 0.01 mm and 9 × 0.01 mm and 16 × 0.01 mm
"COc1ccc2c(c1)c(CC(=O)O)c(C)n2C(=O)c1ccc(Cl)cc1 [Indomethacin, reference compound]",–,–,–,–,–,–,–,–,–,10.0 × 0.01 mm,–
